This passage reports IC50 results from US8759334B2, “Compounds useful for the treatment of metabolic and inflammatory diseases” (Galapagos NV, priority 2011, dated 2014).

The assay deals with T1, GPR43 (Homo sapiens, UniProt O15552).
T1 construct: expressed in transfected cells
T1 sequence (O15552 1-330): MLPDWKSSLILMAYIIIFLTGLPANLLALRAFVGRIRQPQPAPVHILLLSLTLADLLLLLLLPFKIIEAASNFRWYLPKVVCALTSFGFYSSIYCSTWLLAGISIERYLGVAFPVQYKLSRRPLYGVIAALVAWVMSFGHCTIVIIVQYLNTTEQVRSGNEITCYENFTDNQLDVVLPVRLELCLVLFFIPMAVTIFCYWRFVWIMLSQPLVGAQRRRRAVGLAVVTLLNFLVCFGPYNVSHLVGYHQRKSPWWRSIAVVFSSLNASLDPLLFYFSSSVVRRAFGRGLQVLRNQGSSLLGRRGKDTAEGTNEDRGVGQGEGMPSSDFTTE
Briefly: Calcium mobilization assay with probenecid. Particulars: GPR43 stably expressing cells; triggered with sodium acetate at EC80; 2.5 mM probenecid; read-out: GPR43 assay with probenicid IC50. Format: cell-based. Put shortly:
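Cells stably expressing GPR43 plated overnight at 37 °C, then loaded 2 h with Calcium 4 dye plus 2.5 mM probenecid. […]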
In general terms: Calcium flux is commonly read through the fluorescence of an indicator in the cells.

On to `CNS(=O)(=O)CCCN(Cc1ccc(Cl)cc1)C(=O)C1(C)CCN1C(=O)Cc1cc(C)cc(C)c1` (stereo not shown) [Compound 174, 1-[2-(3,5-Dimethyl-phenyl)-acetyl]-2-methyl-azetidine-2-carboxylic acid (4-chloro-benzyl)-(3-methylsulfamoyl-propyl)-amide], for which the IC50 was in the range of 101 to 500 nM.
Regarding `COC(=O)CCN(Cc1ccc2cn[nH]c2c1)C(=O)C1(C)CCN1C(=O)Cc1csc2ccccc12` (stereo not shown) [Compound 175, 3-[[1-(2-Benzo[b]thiophen-3-yl-acetyl)-2-methyl-azetidine-2-carbonyl]-(1H-indazol-6-ylmethyl)-amino]-propionic acid methyl ester], the IC50 is 0.01 to 100 nM.
For `CC1(C(=O)N(CCC(=O)O)Cc2ccc3cn[nH]c3c2)CCN1C(=O)Cc1csc2ccccc12` (stereo not shown) [Compound 176, 3-[[1-(2-Benzo[b]thiophen-3-yl-acetyl)-2-methyl-azetidine-2-carbonyl]-(1H-indazol-6-ylmethyl)-amino]-propionic acid] the value was 101 to 500 nM; for `CC1(C(=O)N(CCCC(=O)O)Cc2ccn3ccnc3c2)CCN1C(=O)Cc1csc2ccccc12` (stereo not shown) [Compound 177, 4-{[1-(2-Benzo[b]thiophen-3-yl-acetyl)-2-methyl-azetidine-2-carbonyl]-imidazo[1,2-a]pyridin-7-ylmethyl-amino}-butyric acid], more than 1000 nM; for `COc1ccc(CNS(=O)(=O)CCCN(Cc2ccc(Cl)cc2)C(=O)C2(C)CCN2C(=O)Cc2csc3ccccc23)c(OC)c1` (stereo not shown) [Compound 178, 1-(2-Benzo[b]thiophen-3-yl-acetyl)-2-methyl-azetidine-2-carboxylic acid (4-chloro-benzyl)-[3-(2,4-dimethoxy-benzylsulfamoyl)-propyl]-amide], more than 1000 nM.
On to `Cc1cc(C)cc(CC(=O)N2CCC2(C)C(=O)N(CCS(=O)(=O)N2CCOCC2)Cc2ccc(Cl)cc2)c1` (stereo not shown) [Compound 179, 1-[2-(3,5-Dimethyl-phenyl)-acetyl]-2-methyl-azetidine-2-carboxylic acid (4-chloro-benzyl)-[2-(morpholine-4-sulfonyl)-ethyl]-amide], for which the IC50 was more than 1000 nM.
For `Cc1cc(C)cc(CC(=O)N2CCC2(C)C(=O)N(CCCS(=O)(=O)N2CCN(C)CC2)Cc2ccc(Cl)cc2)c1` (stereo not shown) [Compound 180, 1-[2-(3,5-Dimethyl-phenyl)-acetyl]-2-methyl-azetidine-2-carboxylic acid (4-chloro-benzyl)-[3-(4-methyl-piperazine-1-sulfonyl)-propyl]-amide] the value was 501 to 1000 nM; for `CC1(C(=O)N(CCCS(N)(=O)=O)Cc2ccc(Cl)cc2)CCN1C(=O)Cc1csc2ccccc12` (stereo not shown) [Compound 181, 1-(2-Benzo[b]thiophen-3-yl-acetyl)-2-methyl-azetidine-2-carboxylic acid (4-chloro-benzyl)-(3-sulfamoyl-propyl)-amide], 0.01 to 100 nM; for `CC1(C(=O)N(CCCC(=O)O)Cc2ccc3scnc3c2)CCN1C(=O)Cc1csc2ccccc12` (stereo not shown) [Compound 183, 4-{[1-(2-Benzo[b]thiophen-3-yl-acetyl)-2-methyl-azetidine-2-carbonyl]-benzothiazol-5-ylmethyl-amino}-butyric acid], 0.01 to 100 nM.
In the case of `CC1(C(=O)N(CCCC(=O)O)Cc2ccc3scnc3c2)CCN1C(=O)c1csc2ccccc12` (stereo not shown) [Compound 184, 4-{[1-(Benzo[b]thiophene-3-carbonyl)-2-methyl-azetidine-2-carbonyl]-benzothiazol-5-ylmethyl-amino}-butyric acid], the IC50 lay in the range of 101 to 500 nM.
On to `Cc1cc(C)cc(CC(=O)N2CCC2(C)C(=O)N(CCCC(=O)O)Cc2ccc3scnc3c2)c1` (stereo not shown) [Compound 185, 4-(Benzothiazol-5-ylmethyl-{1-[2-(3,5-dimethyl-phenyl)-acetyl]-2-methyl-azetidine-2-carbonyl}-amino)-butyric acid], for which the half-maximal inhibitory concentration (IC50) was in the range of 501 to 1000 nM.
On to `CNS(=O)(=O)CCCN(Cc1ccc(Cl)cc1)C(=O)C1(C)CCN1C(=O)c1csc2ccccc12` (stereo not shown) [Compound 186, 1-(Benzo[b]thiophene-3-carbonyl)-2-methyl-azetidine-2-carboxlic acid (4-chloro-benzyl)-(3-methylsulfamoyl-propyl)-amide], for which the IC50 was 101 to 500 nM.
Regarding `CC1(C(=O)N(CCC(=O)O)Cc2ccc3cn[nH]c3c2)CCN1C(=O)c1csc2ccccc12` (stereo not shown) [Compound 188, 3-[[1-(Benzo[b]thiophene-3-carbonyl)-2-methyl-azetidine-2-carbonyl]-(1H-indazol-6-ylmethyl)-amino]-propionic acid], the IC50 lay within 501 to 1000 nM.
As to `CNS(=O)(=O)CCCN(Cc1ccc(Cl)cc1)C(=O)C1(C)CCN1C(=O)Cc1csc2ccccc12` (stereo not shown) [Compound 189, 1-(2-Benzo[b]thiophen-3-yl-acetyl)-2-methyl-azetidine-2-carboxylic acid (4-chloro-benzyl)-(3-methylsulfamoyl-propyl)-amide], the IC50 lay in the range of 0.01 to 100 nM.
For `CNS(=O)(=O)CCCN(Cc1cccc(Cl)c1)C(=O)C1(C)CCN1C(=O)c1csc2ccccc12` (stereo not shown) [Compound 190, 1-(Benzo[b]thiophene-3-carbonyl)-2-methyl-azetidine-2-carboxylic acid (3-chloro-benzyl)-(3-methylsulfamoyl-propyl)-amide] the value was 0.01 to 100 nM; for `CC1(C(=O)N(CCS(N)(=O)=O)Cc2ccc(Cl)cc2)CCN1C(=O)c1csc2ccccc12` (stereo not shown) [Compound 192, 1-(Benzo[b]thiophene-3-carbonyl)-2-methyl-azetidine-2-carboxylic acid (4-chloro-benzyl)-(2-sulfamoyl-ethyl)-amide], 0.01 to 100 nM; for `CNS(=O)(=O)CCN(Cc1ccc(Cl)cc1)C(=O)C1(C)CCN1C(=O)c1csc2ccccc12` (stereo not shown) [Compound 193, 1-(Benzo[b]thiophene-3-carbonyl)-2-methyl-azetidine-2-carboxylic acid (4-chloro-benzyl)-(2-methylsulfamoyl-ethyl)-amide], 101 to 500 nM.
For the molecule `Cc1cc(C)cc(OC(=O)N2CCC2(C)C(=O)N(CCCC(=O)O)Cc2ccc(Cl)cc2)c1` (stereo not shown) [Compound 196, 2-[(3-Carboxy-propyl)-(4-chloro-benzyl)-carbamoyl]-2-methyl-azetidine-1-carboxylic acid 3,5-dimethyl-phenyl ester], the IC50 is 0.01 to 100 nM.
`C[C@H](c1ccc(Cl)cc1)N(CCCC(=O)O)C(=O)[C@@]1(C)CCN1C(=O)c1csc2ccccc12` [Compound 197, 4-{[(R)-1-(Benzo[b]thiophene-3-carbonyl)-2-methyl-azetidine-2-carbonyl]-[(R)-1-(4-chloro-phenyl)-ethyl]-amino}-butyric acid]: the IC50 was in the range of 501 to 1000 nM.
As to `O=C(O)CCCN(Cc1cccc(Cl)c1)C(=O)C1(Cc2ccccc2)CCN1C(=O)c1csc2ccccc12` (stereo not shown) [Compound 199, 4-[[1-(Benzo[b]thiophene-3-carbonyl)-2-benzyl-azetidine-2-carbonyl]-(3-chloro-benzyl)-amino]-butyric acid], the IC50 was in the range of 101 to 500 nM.
Consider `Cc1cc(C)cc(NC(=O)N2CCC2(C)C(=O)N(CCCC(=O)O)Cc2ccc(Cl)cc2)c1` (stereo not shown) [Compound 200, 4-{(4-chloro-benzyl)-[1-(3,5-dimethyl-phenylcarbamoyl)-2-methyl-azetidine-2-carbonyl]-amino}-butyric acid], for which the half-maximal inhibitory concentration (IC50) is more than 1000 nM.
Consider `Cc1cc(C)cc(N(C)C(=O)N2CCC2(C)C(=O)N(CCCC(=O)O)Cc2ccc(Cl)cc2)c1` (stereo not shown) [Compound 201, 4-((4-Chloro-benzyl)-{1-[(3,5-dimethyl-phenyl)-methyl-carbamoyl]-2-methyl-azetidine-2-carbonyl}-amino)-butyric acid], for which the IC50 was more than 1000 nM.
As to `CC1(C(=O)N(CCCC(=O)O)Cc2ccc(Cl)cc2)CCN1C(=O)Oc1ccccc1Cl` (stereo not shown) [Compound 202, 2-[(3-Carboxy-propyl)-(4-chloro-benzyl)-carbamoyl]-2-methyl-azetidine-1-carboxylic acid 2-chloro-phenyl ester], the half-inhibitory concentration (IC50) was more than 1000 nM.
The figure for `CC(C)C1(C(=O)N(CCCC(=O)O)Cc2cccc(Cl)c2)CCN1C(=O)c1csc2ccccc12` (stereo not shown) [Compound 203, 4-[[1-(Benzo[b]thiophene-3-carbonyl)-2-isopropyl-azetidine-2-carbonyl]-(3-chloro-benzyl)-amino]-butyric acid] is 0.01 to 100 nM.
Regarding `CCCC1(C(=O)N(CCCC(=O)O)Cc2cccc(Cl)c2)CCN1C(=O)c1csc2ccccc12` (stereo not shown) [Compound 204, 4-[[1-(Benzo[b]thiophene-3-carbonyl)-2-propyl-azetidine-2-carbonyl]-(3-chloro-benzyl)-amino]-butyric acid], the IC50 fell in the range of 0.01 to 100 nM.
In the case of `Cc1ccccc1OC(=O)N1CCC1(C)C(=O)N(CCCC(=O)O)Cc1ccc(Cl)cc1` (stereo not shown) [Compound 205, 2-[(3-Carboxy-propyl)-(4-chloro-benzyl)-carbamoyl]-2-methyl-azetidine-1-carboxylic acid o-tolyl ester], the IC50 was more than 1000 nM.
For the molecule `CC1(C(=O)N(CCCS(N)(=O)=O)c2ccc(Cl)cc2)CCN1C(=O)c1csc2ccccc12` (stereo not shown) [Compound 206, 1-(Benzo[b]thiophene-3-carbonyl)-2-methyl-azetidine-2-carboxylic acid (4-chloro-phenyl)-(3-sulfamoyl-propyl)-amide], the IC50 fell in the range of 0.01 to 100 nM.
For `C[C@]1(C(=O)N(CCCC(=O)NS(C)(=O)=O)Cc2cccc(Cl)c2)CCN1C(=O)c1csc2ccccc12` [Compound 207, (R)-1-(benzo[b]thiophene-3-carbonyl)-N-(3-chlorobenzyl)-2-methyl-N-(4-(methylsulfonamido)-4-oxobutyl)azetidine-2-carboxamide] the value was 0.01 to 100 nM.

A word on the IC50: it is the concentration at which inhibition is half-maximal.
